Series [1] concerns Rattus norvegicus. In words: Memory enhancement effect in scopolamine-induced Wistar rat model of amnesia assessed as exploration time for object2 in acquisition trial at 0.5 mg/kg, po administered as single dose and measured on day 8 by novel object recognition test (reference value: 15.63 sec). It is filed as functional.
A further series deals with Cytochrome P450 2E1 (Homo sapiens, UniProt P05181). Nature of the series: Inhibition of CYP2E1 (unknown origin) up to 10 uM. The format is ADME.
Cytochrome P450 2E1, sequence (P05181 whole entry): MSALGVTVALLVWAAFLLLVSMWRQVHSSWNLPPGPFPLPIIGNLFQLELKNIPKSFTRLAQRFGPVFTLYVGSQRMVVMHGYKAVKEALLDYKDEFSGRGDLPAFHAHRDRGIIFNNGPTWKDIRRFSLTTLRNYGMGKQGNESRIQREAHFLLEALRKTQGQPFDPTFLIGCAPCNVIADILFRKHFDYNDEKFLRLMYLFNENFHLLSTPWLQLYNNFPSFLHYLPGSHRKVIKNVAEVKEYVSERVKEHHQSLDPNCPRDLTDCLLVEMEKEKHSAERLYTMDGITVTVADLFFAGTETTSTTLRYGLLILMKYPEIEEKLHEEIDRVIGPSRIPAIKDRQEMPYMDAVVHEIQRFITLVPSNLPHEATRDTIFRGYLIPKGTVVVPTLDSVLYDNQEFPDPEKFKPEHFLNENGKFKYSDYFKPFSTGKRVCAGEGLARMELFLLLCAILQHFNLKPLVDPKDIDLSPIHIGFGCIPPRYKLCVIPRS
For series [2], the system named is Rattus norvegicus. In words: Memory enhancement effect in time-delay induced Wistar rat model of amnesia assessed as exploration time for object1 in acquisition trial at 0.15 mg/kg, po for 7 days and measured on day 8 by novel object recognition test (reference value: 13.73 sec). It is filed as functional.
Series [3] has as its system Rattus norvegicus. Nature of the series: Improvement in social recognition scopolamine-induced Sprague-Dawley rat model of amnesia assessed as reduction in recognition index 3 mg/kg, po administered as single dose prior to 1 hr training and measured after 30 mins (reference value: 0.9). It is filed as functional.
The test system of series [4] is Rattus norvegicus. Nature of the series: Memory enhancement effect in time-delay induced Wistar rat model of amnesia assessed as exploration time for familiar object in retention trial at 1 mg/kg, po administered as single dose and measured on day 9 by novel object recognition test (reference value: 13.05 sec). It is filed as functional.
The subject of series [5] is Rattus norvegicus. Nature of the series: Improvement in social recognition time delay-induced Sprague-Dawley rat model of amnesia assessed as reduction in recognition index at 0.50 mg/kg, po for 7 days and measured on day 9 (reference value: 1.05). It is filed as functional.
Series [6] can be described thus: Drug level in scopolamine-induced Sprague-Dawley rat brain at 0.5 mg/kg, po for 7 days. The format is ADME, organism-based. The settings on record: read-out: Drug uptake.
Series [7] has as its system Rattus norvegicus. Nature of the series: Memory enhancement effect in time-delay induced Wistar rat model of amnesia assessed as exploration time for familiar object at 3 mg/kg, po administered as single dose after acquisition trial by novel object recognition test (reference value: 10.6 sec). The format is functional.
Series [8] deals with Rattus norvegicus. In words: Memory enhancement effect in time-delay induced Wistar rat model of amnesia assessed as increase in discrimination index at 0.5 mg/kg, po for 7 days and measured on day 8 by novel object recognition test (reference value: 0.12). The format is functional.
Series [9] has as its system Rattus norvegicus. Nature of the series: Memory enhancement effect in time-delay induced Wistar rat model of amnesia assessed as exploration time for object2 in acquisition trial at 0.15 mg/kg, po for 7 days and measured on day 8 by novel object recognition test (reference value: 11.76 sec). The format is functional.
Series [10] concerns Rattus norvegicus. Nature of the series: Memory enhancement effect in time-delay induced Wistar rat model of amnesia assessed as exploration time for object1 at 3 mg/kg, po administered as single dose after acquisition trial by novel object recognition test (reference value: 19.09 sec). The format is functional.
The subject of series [11] is Rattus norvegicus. In words: Improvement in social recognition time delay-induced Sprague-Dawley rat model of amnesia assessed as increase in reduction in social investigation time at 0.15 mg/kg, po for 7 days and measured on day 9 (reference value: -0.5%). It is filed as functional. Further details: scale not given: the % may be the effect or the level left; call rule not given here.
Series [12] deals with Rattus norvegicus. In words: Memory enhancement effect in time-delay induced Wistar rat model of amnesia assessed as exploration time for novel object in retention trial at 0.5 mg/kg, po for 7 days and measured on day 8 by novel object recognition test (reference value: 15.37 sec). It is filed as functional.
Series [13] relates to Rattus norvegicus. In words: Memory enhancement effect in time-delay induced Wistar rat model of amnesia assessed as exploration time for object2 in acquisition trial at 3 mg/kg, po administered as single dose and measured on day 8 by novel object recognition test (reference value: 16.33 sec). The format is functional.
Series [14] is described as follows: Brain to plasma permeability coefficient, Kp in Wistar rat at 10 mg/kg, po after 48 hrs by LC-MS/MS analysis. The format is ADME, organism-based.
The nature of series [15]: Clearance in Wistar rat at 1 mg/kg, iv after 0.083 to 144 hrs by LC-MS/MS analysis. It is filed as ADME, organism-based. As to conditions: in vivo.
Series [16] concerns Rattus norvegicus. In words: Improvement in social recognition scopolamine-induced Sprague-Dawley rat model of amnesia assessed as increase in reduction in social investigation time at 0.15 mg/kg, po for 7 days measured after 24 hrs (Rvb =6.59%). The format is functional. Also on record: scale not given: the % may be the effect or the level left.
A further series deals with T1, Cytochrome P450 2B6 (Homo sapiens, UniProt P20813).
T1 sequence (P20813 whole entry): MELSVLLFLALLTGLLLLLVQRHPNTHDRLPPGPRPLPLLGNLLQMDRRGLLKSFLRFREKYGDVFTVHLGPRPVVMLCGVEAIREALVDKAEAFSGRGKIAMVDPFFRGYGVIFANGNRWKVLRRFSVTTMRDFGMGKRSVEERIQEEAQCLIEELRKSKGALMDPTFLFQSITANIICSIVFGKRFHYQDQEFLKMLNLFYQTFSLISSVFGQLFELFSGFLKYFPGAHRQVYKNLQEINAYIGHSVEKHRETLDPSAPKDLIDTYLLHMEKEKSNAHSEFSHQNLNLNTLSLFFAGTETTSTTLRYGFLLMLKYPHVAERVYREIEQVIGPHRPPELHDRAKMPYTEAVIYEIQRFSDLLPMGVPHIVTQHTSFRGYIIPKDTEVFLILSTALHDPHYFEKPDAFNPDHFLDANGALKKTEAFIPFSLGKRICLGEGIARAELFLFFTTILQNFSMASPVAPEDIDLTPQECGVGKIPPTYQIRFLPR
Nature of the series: Inhibition of CYP2B6 (unknown origin) up to 10 uM. It is filed as ADME.

Series [17] can be described thus: Tmax in BALB/c mouse at 10 mg/kg, po after 0.25 to 144 hrs by LC-MS/MS analysis. It is filed as ADME, organism-based. As to conditions: in vivo.
Another series addresses T2, Cytochrome P450 2A6 (Homo sapiens, UniProt P11509).
T2 sequence (P11509 whole entry): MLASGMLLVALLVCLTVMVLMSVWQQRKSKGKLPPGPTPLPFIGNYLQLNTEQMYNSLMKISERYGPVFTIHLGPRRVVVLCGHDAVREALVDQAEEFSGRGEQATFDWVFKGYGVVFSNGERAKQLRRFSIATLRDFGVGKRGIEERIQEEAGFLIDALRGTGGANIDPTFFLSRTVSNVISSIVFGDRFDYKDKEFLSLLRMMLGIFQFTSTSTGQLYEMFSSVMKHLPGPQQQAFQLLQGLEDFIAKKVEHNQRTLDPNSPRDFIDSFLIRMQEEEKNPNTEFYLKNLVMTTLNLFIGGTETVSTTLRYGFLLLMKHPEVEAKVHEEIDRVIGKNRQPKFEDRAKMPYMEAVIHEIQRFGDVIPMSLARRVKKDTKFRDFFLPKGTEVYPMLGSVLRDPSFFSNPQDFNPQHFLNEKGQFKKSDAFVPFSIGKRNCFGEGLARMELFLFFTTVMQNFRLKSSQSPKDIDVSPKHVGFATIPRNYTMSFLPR
Nature of the series: Inhibition of CYP2A6 (unknown origin) up to 10 uM. It is filed as ADME.

Series [18] relates to Rattus norvegicus. Nature of the series: Memory enhancement effect in time-delay induced Wistar rat model of amnesia assessed as exploration time for familiar object in retention trial at 0.5 mg/kg, po for 7 days and measured on day 8 by novel object recognition test (reference value: 10.20 sec). It is filed as functional.
A short description of series [19]: Tmax in Wistar rat brain at 10 mg/kg, po after 1 to 144 hrs by LC-MS/MS analysis. The format is ADME, organism-based.
A short description of series [20]: Drug concentration in Wistar rat plasma at 10 mg/kg, po after 1 hr by LC-MS/MS analysis. The format is ADME, organism-based.
Series [21] can be described thus: Drug level in Sprague-Dawley rat plasma at 0.05 mg/kg, po for 7 days. It is filed as ADME, organism-based.

Structures are written as SMILES.

Broadly, the Kp is the ratio of the level in a tissue or fluid to that in plasma or blood. In general, clearance refers to the rate of elimination divided by the concentration. By Tmax is commonly meant the time from dosing to the highest level.

As for `CCC(=O)c1sc(-c2ccc(Cl)cc2)c(C)c1-c1ccc(S(N)(=O)=O)cc1`, the Time is recorded as 16.55 s in the series with Rattus norvegicus [1]; 10.95 s in the series on Rattus norvegicus [2]; 10.49 s in the series on Rattus norvegicus [4]; 5.9 s in the series with Rattus norvegicus [7]; 13.58 s in the series on Rattus norvegicus [9]; 17.81 s in the series on Rattus norvegicus [10]. Also, the figures for the Time in the series on Rattus norvegicus [12], with Rattus norvegicus [13] and in the series on Rattus norvegicus [18] were 19.64 s, 19.43 s and 4.9 s, respectively. Further, the “inhibition (INH)” value against Cytochrome P450 2E1, against Cytochrome P450 2B6 and on Cytochrome P450 2A6 was “Not Active” throughout. Moreover, the figures for the Activity_index in the series on Rattus norvegicus [3], with Rattus norvegicus [5] and in the series on Rattus norvegicus [8] were 0.45, 0.54 and 0.58, respectively. The concentration at 168 h amounted to 2130 nM in series [6] and 130 nM in [21]. Besides, the Activity was found to be 43.63% in the series on Rattus norvegicus [11] and 55.83% in the series on Rattus norvegicus [16]. Moreover, the Kp at 48 h in [14] is 9.52. Also, the clearance in [15] was determined as 1.3 mL/min/kg. Further, the Tmax in series [17] and in series [19] was 4 h throughout. For the same compound, the concentration at 1 h in series [20] was found to be 870 nM.

These data come from ChEMBL document CHEMBL4354827, “Discovery of Novel, Potent, Brain-Permeable, and Orally Efficacious Positive Allosteric Modulator of α7 Nicotinic Acetylcholine Receptor [4-(5-(4-Chlorophenyl)-4-methyl-2-propionylthiophen-3-yl)benzenesulfonamide]: Structure-Activity Relationship and Preclinical Characterization” (J Med Chem, 2020).
